The values below come from the Deep4Chem optical property database.

A short description of this data set: solvent given as SMILES.
[1] abbreviates: in O=P(c1ccccc1)(c1ccccc1)c1ccccc1Oc1ccccc1P(=O)(c1ccccc1)c1ccccc1.

As to `Nc1c(-c2nn([C@H]3C[C@H](O)[C@@H](CO)O3)c3ncnc(N)c23)ccc2ccccc12`, the emission maximum by setting is: (in C1COCCO1) 428 nm; (in CC#N) 458 nm; (in CC(C)O) 480 nm; (in CCO) 489 nm; (in CCOC(C)=O) 433 nm; (in CN(C)C=O) 452 nm. Moreover, the emission maximum runs as follows: (in CO) 498 nm; (in CS(C)=O) 450 nm; (in OCC(O)CO) 404 nm; (in OCCO) 493 nm.
Turning to `CCCCn1c2ccc(C#Cc3cccs3)cc2c2c1c1c3ccc(C#Cc4cccs4)cc3n(CCCC)c1c1c3ccc(C#Cc4cccs4)cc3n(CCCC)c21`, for the setting “in C1CCOC1”, the emission maximum is 430 nm.
In turn, `CC1=C(/C=C/c2ccccc2)C(C)=[N+]2C1=C(c1ccccc1)c1c(C)c(/C=C/c3ccccc3)c(C)n1[B-]2(F)F` returned an emission maximum (in ClC(Cl)Cl) of 633 nm.
Compound `FC(F)(F)c1c(-n2c3ccccc3c3ccccc32)c(-n2c3ccccc3c3ccccc32)c(-n2c3ccccc3c3ccccc32)c(-n2c3ccccc3c3ccccc32)c1-n1c2ccccc2c2ccccc21` showed an emission maximum (in ClCCl) of 481 nm.
Where the note is “in Cc1ccccc1”, `CC1(C)c2ccccc2N(c2ccc(-c3nc(-c4ccccc4)cc(-c4ccccc4)n3)cc2)c2ccccc21` gave an emission maximum of 454.83 nm.
Compound `CCCCCCc1sc(CCCCCC)c2c3ccsc3c3sccc3c12` gave an emission maximum (in ClC(Cl)Cl) of 425 nm.
Compound `CCC1=C(CC)c2cccc3c2c(cc2nc4ccccc4nc23)O1` displayed an emission maximum (in ClCCl) of 563 nm.
As to `COc1cc2c(cc1-c1cccs1)Cc1c3c(c4c(c1-2)-c1cc(OC)c(-c2cccs2)cc1C4)C(=O)N(CCC(C)C)C3=O`, the emission maximum (in C1CCOC1) was determined as 505 nm.
On to `COc1cc(N(c2ccc(C=C(C#N)C#N)c(OC)c2)c2ccc(C=C(C#N)C#N)c(OC)c2)ccc1C=C(C#N)C#N`, for which the emission maximum reads like this: (in C1COCCO1) 521 nm; (in CC#N) 566 nm; (in CC(C)=O) 557 nm; (in CCOC(C)=O) 532 nm; (in CN(C)C=O) 575 nm; (in CO) 551 nm. Further, the emission maximum is, setting by setting: (in Cc1ccccc1) 500 nm; (in ClC(Cl)Cl) 514 nm; (in ClCCl) 531 nm.
`c1ccc2c(-c3ccc4sc5ccc(-c6c7ccccc7cc7ccccc67)cc5c4c3)c3ccccc3cc2c1`: the emission maximum (in C1CCCCC1) came out at 399.14 nm, the emission maximum (in CC#N) was 402.78 nm and the emission maximum (in ClCCl) is 408.25 nm.
In the case of `Cn1c(=O)c(/N=N/c2ccc(Nc3ccc([N+](=O)[O-])cc3S(=O)(=O)O)cc2)c(O)c2ccccc21`, the emission maximum was 615 nm (in C1CCOC1); 617 nm (in CC(C)=O); 610 nm (in CCOC(C)=O); 619 nm (in CO); 622 nm (in CS(C)=O); 605 nm (in Cc1ccccc1). For the same compound, the emission maximum is reported as 617 nm (in ClCCl) and 636 nm (in O).
Turning to `O=C([O-])c1ccc(C2=c3cc4c5c(c3Oc3c2cc2c6c3CCCN6CCC2)CCC[N+]=5CCC4)c(C(=O)[O-])c1`, the emission maximum reads like this: (in CCO) 601 nm; (in O) 603 nm.
The compound `CCC1=C(C)C2=C(/C=C/c3ccc([N+](=O)[O-])cc3)c3c(C)c(CC)c(C)n3[B-](F)(F)[N+]2=C1C` returned an emission maximum (in ClCCl) of 532 nm.
Under “in ClC(Cl)Cl”, `COc1cc(C=C(C#Cc2ccccc2)C#Cc2ccccc2)c(OC)cc1C=C(C#Cc1ccccc1)C#Cc1ccccc1` had an emission maximum of 522 nm.
With `CC[N+]1(CC)CN2C(=N1)C(C(=O)O)=Cc1cc(SC)ccc12`, the emission maximum (in O) came out at 515 nm.
`Cc1cc(N2c3ccccc3C(C)(C)c3ccccc32)ccc1-c1cc(-c2ccc(N3c4ccccc4C(C)(C)c4ccccc43)cc2C)ncn1`: the emission maximum was found to be 477 nm (in Cc1ccccc1) and 477 nm under setting [1].
Consider `CN1c2cc3nc4cc(F)c(F)cc4nc3cc2N(C)C1(C)C`, for which, under “in CCO”, the emission maximum stood at 488 nm.
For `CN1CCN(CCCN2c3ccccc3Sc3ccc(C(F)(F)F)cc32)CC1`, the emission maximum is, setting by setting: (in CC#N) 470 nm; (in CO) 467 nm; (in O) 482 nm.
As to `CCCCCCc1ccsc1-c1ccc(-c2sc(C(=O)O)cc2CCCCCC)s1`, the emission maximum worked out at 468 nm (in CC(C)=O); 458 nm (in CCCCCC); 451 nm (in CCO); 451 nm (in CO); 479 nm (in ClCCl); 490 nm (in O).
`Clc1nnc(Oc2ccc(N(c3ccc(Br)cc3)c3ccc(Br)cc3)cc2)nn1` gave an emission maximum (in ClCCl) of 559 nm.
On the same count and under the same terms, next, `CCCCCCOc1cc(N(CC)CC)ccc1/C=C(\C#N)c1ccc(/C=C/C(=C(C#N)C#N)c2ccc(N(c3ccccc3)c3ccccc3)cc2)s1`: 750 nm.
Where the note is “in ClC(Cl)Cl”, `FC(F)(F)c1ccc(-c2ncc3ccccn23)cc1` displayed an emission maximum of 459 nm.
Under “in C1CCOC1”, `C1=C(c2ccccc2)C(c2ccccc2)C(c2ccccc2)=C1` registered an emission maximum of 385 nm.
As for `Brc1cc2nc3cc4c5c(cccc5c3nc2cc1Br)C(c1ccccc1)=C(c1ccccc1)O4`, the emission maximum (in ClCCl) stood at 580 nm.
With `c1ccc(-c2nnc(-c3ccc(N4c5ccccc5N(c5ccccc5)c5ccccc54)cc3)n2-c2ccccc2)cc1`, the emission maximum by setting is: (in Cc1ccccc1) 528 nm; (in c1cc(-n2c3ccccc3c3ccccc32)cc(-n2c3ccccc3c3ccccc32)c1) 520 nm.
In turn, `Oc1ccccc1/C=N/CC/N=C/c1ccccc1O` had an emission maximum (in CC#N) of 461 nm.
Regarding `O=C(O)CCCc1cc(C#Cc2ccccc2)c2ccc3c(C#Cc4ccccc4)cc(C#Cc4ccccc4)c4ccc1c2c34`, the emission maximum is, setting by setting: (in CS(C)=O) 461 nm; (in ClC(Cl)(Cl)Cl) 460 nm.
Compound `COc1ccc(N(c2ccc(OC)cc2)c2ccc(-c3ccc4nc5ccccc5c(=O)n4c3)cc2)cc1` showed an emission maximum (in ClCCl) of 538 nm.
For the compound `CN(C)c1ccc(-c2ccc(C#N)s2)s1`, the emission maximum (in CCO) worked out at 510 nm.
As to `N#Cc1ccc(C2=Cc3ccccc3P2(=O)c2ccccc2)cc1` (configuration not stated), the emission maximum (in ClCCl) was 426 nm.
In the case of `Cc1cccc(C2=CC3=C(c4c(C)cc(C)cc4C)c4cc(-c5cccc(C)c5)c(-c5cccc(C)c5)n4[B-](F)(F)[N+]3=C2c2cccc(C)c2)c1`, the emission maximum reads like this: (in C1CCCCC1) 625 nm; (in C1CCOC1) 626 nm; (in CC#N) 620 nm; (in Cc1ccccc1) 628 nm; (in ClCCl) 627 nm.
Where the note is “in ClCCl”, `CC(C)c1cccc(C(C)C)c1N1C(=O)c2cccc3c(Oc4ccc(Cl)cc4)ccc(c23)C1=O` registered an emission maximum of 423 nm.
Take `c1ccc(-c2ccc3c(c2)c2cc(-c4ccccc4)ccc2n3-c2ccc3c(c2)c2cc(-n4c5ccc(-c6ccccc6)cc5c5cc(-c6ccccc6)ccc54)ccc2n3-c2ccc(-c3nc(-c4ccccc4)nc(-c4ccccc4)n3)cc2)cc1`: the emission maximum runs as follows: (in Cc1ccccc1) 457 nm; under setting [1], 480 nm.
For `Cc1nnc(-c2ccc(-n3c4ccccc4c4ccccc43)cc2)o1`, the emission maximum (in CCO) was 440 nm and the emission maximum (in Cc1ccccc1) is 372 nm.
